Holding throughout (type): in vivo
The test system of assay [1] is constipation caused by a chemotherapeutic agent in Balb/c mice. Briefly: Examples 406-443 (Table 8): various administration modes of the CDK inhibitor, relief of constipation caused by a chemotherapeutic agent.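 For Relative remission rate of oral administration: percent of treated mice relieved versus chemotherapy group by feces reduction rate.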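 For Relative remission rate of other administration mode: percent of treated mice relieved versus chemotherapy group by feces reduction rate.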 The note with it: for Relative remission rate of other administration mode / Relative remission rate of oral administration: cycle 8 days; for improvement of constipation by oral administration, intraperitoneal injection, intramuscular injection, local administration: constipation caused by doxorubicin, etoposide, etoposide plus cisplatin, carboplatin, gemcitabine, gemcitabine plus carboplatin, under certain conditions, oral most significant. The text has this: Balb/c mice were fed for 1 week, and then divided into groups. The experiment was divided into a control group, a chemotherapeutic agent group, CDK inhibitor groups (including an oral administration group of a CDK inhibitor, an intravenous injection group of a CDK inhibitor, an intraperitoneal injection group of a CDK inhibitor, an intramuscular injection group of a CDK inhibitor, a local administration group of a CDK inhibitor), each of which comprised 10 mice, to perform the administration experiment, for which the administration dosage, mode, time and frequency were shown in Table 8. The control group: being administered with the same solvent as that used in the CDK inhibitor group (the time and mode were shown in Table 8), and then being injected/intragastrically administered with the same solvent as that used in the chemotherapeutic agent group (the administration mode was shown in Table 8): the chemotherapeutic agent group: being administered with the same solvent as that used in the CDK inhibitor group (the time and mode were shown in Table 8), and then being injected/intragastrically administered with the chemotherapeutic agent (the type, administration mode and dosage were shown in Table 8): the oral administration group of the CDK inhibitor: being intragastrically administered with the CDK inhibitor (the time was shown in Table 8), and then being administered with the chemotherapeutic agent (the mode and dosage were shown in Table 8): the intravenous injection group of the CDK inhibitor: being injected with the CDK inhibitor through tail vein (the time was shown in Table 8), and then being administered with the chemotherapeutic agent (the mode and dosage were shown in Table 8): the intraperitoneal injection group of the CDK inhibitor: being intraperitoneally injected with the CDK inhibitor (the time was shown in Table 8), and then being administered with the chemotherapeutic agent (the mode and dosage were shown in Table 8): the intramuscular injection group of the CDK inhibitor: being intramuscularly injected with the CDK inhibitor (the time was shown in Table 8), and then being administered with the chemotherapeutic agent (the mode and dosage were shown in Table 8); and the local administration group of the CDK inhibitor: the hair on the abdomen of mice was shaved (about 2 cm*2 cm), being applied with the CDK inhibitor (the time was shown in Table 8), and then being administered with the chemotherapeutic agent (the mode and dosage were shown in Table 8).
(§1) Feces reduction rate (%)=(the control group−the chemotherapeutic agent group or the CDK inhibitor group)/the control group*100%
(§2) The feces amount of mice within 3 hours was observed and recorded every day.

For assay [2], the system named is Chemotherapeutic agent-caused diarrhea models of Balb/c mice. Briefly: Examples 1-229 (Table 3): oral CDK inhibitor, relief of diarrhea caused by a chemotherapeutic agent.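 Note: percent of treated mice whose diarrhea grade fell below chemotherapy-group average.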 The text has this:
Construction of mouse animal models: Chemotherapeutic agent-caused diarrhea models of Balb/c mice were constructed according to the administration mode and frequency of the chemotherapeutic agent as shown in Table 3.
Balb/c mice were fed for 1 week, and then divided into groups. The experiment was divided into a control group, a chemotherapeutic agent group, and a CDK inhibitor group, each of which comprised 10 mice, to perform the administration experiment, for which the administration dosage, mode, time and frequency were shown in Table 3. The control group: being intragastrically administered with the same solvent as that used in the CDK inhibitor group (the time was shown in Table 3), and then being injected/intragastrically administered with the same solvent as that used in the chemotherapeutic agent group (the administration mode was shown in Table 3): the chemotherapeutic agent group: being intragastrically administered with the same solvent as that used in the CDK inhibitor group (the time was shown in Table 3), and then being injected/intragastrically administered with the chemotherapeutic agent (the type, administration mode and dosage were shown in Table 3); the CDK inhibitor group: being intragastrically administered with the CDK inhibitor (the time was shown in Table 3), and then being administered with the chemotherapeutic agent (the mode and dosage were shown in Table 3).
The diarrhea grading of mice was observed and recorded every day.

Assay [3] has as its system Chemotherapeutic agent-caused constipation models of Balb/c mice. Briefly: Examples 272-342 (Table 5): oral CDK inhibitor, relief of constipation caused by a chemotherapeutic agent.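 Note: percent of treated mice relieved versus chemotherapy group by feces reduction rate.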 The note with it: cycle 8 days.
Text: Construction of mouse animal models: Chemotherapeutic agent-caused constipation models of Balb/c mice were constructed according to the administration mode and frequency of the chemotherapeutic agent as shown in Table 5.
Balb/c mice were fed for 1 week, and then divided into groups. The experiment was divided into a control group, a chemotherapeutic agent group, and a CDK inhibitor group, each of which comprised 10 mice, to perform the administration experiment, for which the administration dosage, mode, time and frequency were shown in Table 5. The control group: being intragastrically administered with the same solvent as that used in the CDK inhibitor group (the time was shown in Table 5), and then being injected/intragastrically administered with the same solvent as that used in the chemotherapeutic agent group (the administration mode was shown in Table 5): the chemotherapeutic agent group: being intragastrically administered with the same solvent as that used in the CDK inhibitor group (the time was shown in […]), and then being injected/intragastrically administered with the chemotherapeutic agent (the type, administration mode and dosage were shown in Table 5): the CDK inhibitor group: being intragastrically administered with the CDK inhibitor (the time was shown in Table 5), and then being administered with the chemotherapeutic agent (the mode and dosage were shown in Table 5).
as §1, §2

This is an account of results in US20240293413A1, “COMPOUND AND METHOD FOR TREATING CHEMOTHERAPY-RELATED GASTROINTESTINAL SIDE EFFECTS” (ONQUALITY PHARMACEUTICALS CHINA LTD., priority 2021, published 2024).

Consider Roniciclib, for which, in assay [1] (Example 420, Etoposide (Etop1) intravenous injection 100 mg/kg single, CDK inhibitor intraperitoneal injection 100 mg/kg single, 1 h before), the “Relative remission rate of other administration mode” value is 10%. Besides, the “Relative remission rate of oral administration” value in assay [1] (Example 420, Etoposide (Etop1) intravenous injection 100 mg/kg single, CDK inhibitor oral 1 mg/kg single, 1 h before) is listed as 20%. Moreover, the “improvement of constipation by oral administration, intraperitoneal injection, intramuscular injection, local administration” value in assay [1] is recorded as “can significantly improve constipation”. The “Relative remission rate (%)” value is 30% in assay [2] (Example 73, Oxaliplatin intraperitoneal injection 20 mg/kg single, CDK inhibitor oral 10 mg/kg single 6 h before, cycle 8 days) and 20% in assay [2] (Example 117, Irinotecan (CPT-11) intraperitoneal injection 240 mg/kg single, CDK inhibitor oral 10 mg/kg single 6 h before, cycle 7 days). Moreover, the Relative remission rate in assay [3] (Example 322, Docetaxel (DTX) intramuscular injection 20 mg/kg single, CDK inhibitor oral 1 mg/kg single, 5 h before) is 10%.
As for `CC[C@H](CO)Nc1nc(NCc2ccccc2)c2ncn(C(C)C)c2n1` [Seliciclib], the “Relative remission rate of other administration mode” value is listed as 10% in assay [1] (Example 442, Gemcitabine and Carboplatin oral administration 300 (G) 200 (C) mg/kg single, CDK inhibitor local administration 400 mg/kg single, 4 h before); 10% in assay [1] (Example 443, Gemcitabine and Carboplatin oral administration 300 (G) 200 (C) mg/kg single, CDK inhibitor local administration 400 mg/kg single, 8 h before). Moreover, the “Relative remission rate of oral administration” value is on record as 20% in assay [1] (Example 442, Gemcitabine and Carboplatin oral administration 300 (G) 200 (C) mg/kg single, CDK inhibitor oral 400 mg/kg single, 4 h before); 20% in assay [1] (Example 443, Gemcitabine and Carboplatin oral administration 300 (G) 200 (C) mg/kg single, CDK inhibitor oral 400 mg/kg single, 8 h before). Besides, in assay [1], the “improvement of constipation by oral administration, intraperitoneal injection, intramuscular injection, local administration” value is given as “can significantly improve constipation”. Besides, the “Relative remission rate (%)” value amounted to 30% in assay [2] (Example 46, Fluorouracil (5-Fu) intravenous injection 175 mg/kg single, CDK inhibitor oral 250 mg/kg single 2 h before, cycle 10 days); 30% in assay [2] (Example 118, Irinotecan (CPT-11) intraperitoneal injection 240 mg/kg single, CDK inhibitor oral 250 mg/kg single 6 h before, cycle 7 days); 30% in assay [2] (Example 195, Gemcitabine 60 mg/kg and paclitaxel 10 mg/kg intravenous injection single, CDK inhibitor oral 400 mg/kg single, 0.5 h before, 8 days); 20% in assay [2] (Example 199, Gemcitabine 60 mg/kg and paclitaxel 10 mg/kg intravenous injection single, CDK inhibitor oral 250 mg/kg single, 2 h before, 8 days); 40% in assay [2] (Example 200, Gemcitabine 60 mg/kg and paclitaxel 10 mg/kg intraperitoneal injection single, CDK inhibitor oral 250 mg/kg single, 6 h before, 8 days). The same compound registered a Relative remission rate in assay [3] (Example 321, Docetaxel (DTX) oral administration 30 mg/kg single, CDK inhibitor oral 400 mg/kg single, 3 h before) of 20%.
